Test results: the supplement of paper PMC10307832

What was measured:
Assay in all cases: relative viability (nuclei count vs DMSO), 5 days (fraction); higher = more cells survive
201T = test system: 201T
Outline: (§1)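 Nuclei were stained with Hoechst during a one-step fixation (final 0.05% Triton X-100, 1% formaldehyde, 1 ug/ml Hoechst) carried out 5 days after dosing, then counted on 4× images. The cells, lung cancer lines in 1536-well plates, had been dosed by pin tool the day after seeding with one drug alone or a fixed anchor-drug dose plus five library-drug doses (not always all listed) in √10 steps. Relative viability is the nuclei count in treated wells divided by that in vehicle wells, and each value is the median of duplicate plates.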

COR-L23 = test system: COR-L23
Outline: as §1

H3255 = test system: H3255
Outline: as §1

HARA = test system: HARA
Outline: as §1

HCC-366 = test system: HCC-366
Outline: as §1

HCC-78 = test system: HCC-78
Outline: as §1

LU99A = test system: LU99A
Outline: as §1

NCI-H1650 = test system: NCI-H1650
Outline: as §1

NCI-H1651 = test system: NCI-H1651
Outline: as §1

NCI-H1755 = test system: NCI-H1755
Outline: as §1

NCI-H1793 = test system: NCI-H1793
Outline: as §1

NCI-H2085 = test system: NCI-H2085
Outline: as §1

SMILES: CCNC(=O)c1noc(-c2cc(C(C)C)c(O)cc2O)c1-c1ccc(CN2CCOCC2)cc1 [Luminespib] + COc1cccc2cc(-c3nc([C@H]4CC[C@H](C(=O)O)CC4)n4ncnc(N)c34)[nH]c12 [OSI-027] (partner 0.5 µM)
- relative viability (201T; first compound 0.002 µM): 0.756
- relative viability (201T; first compound 0.02 µM): 0.668
- relative viability (201T; first compound 0.06325 µM): 0.492
- relative viability (201T; first compound 0.2 µM): 0.159
- relative viability (COR-L23; first compound 0.002 µM): 0.925
- relative viability (COR-L23; first compound 0.006325 µM): 0.655
- relative viability (COR-L23; first compound 0.02 µM): 0.508
- relative viability (COR-L23; first compound 0.06325 µM): 0.079
- relative viability (COR-L23; first compound 0.2 µM): 0.0776
- relative viability (H3255; first compound 0.002 µM): 0.596
- relative viability (H3255; first compound 0.006325 µM): 0.628
- relative viability (H3255; first compound 0.06325 µM): 0.577
- relative viability (H3255; first compound 0.2 µM): 0.249
- relative viability (HARA; first compound 0.002 µM): 0.511
- relative viability (HARA; first compound 0.006325 µM): 0.281
- relative viability (HARA; first compound 0.02 µM): 0.381
- relative viability (HARA; first compound 0.06325 µM): 0.0542
- relative viability (HARA; first compound 0.2 µM): 0.0658
- relative viability (HCC-366; first compound 0.002 µM): 1.11
- relative viability (HCC-366; first compound 0.006325 µM): 0.832
- relative viability (HCC-366; first compound 0.02 µM): 0.698
- relative viability (HCC-366; first compound 0.06325 µM): 0.0495
- relative viability (HCC-366; first compound 0.2 µM): 0.0391
- relative viability (HCC-78; first compound 0.002 µM): 0.361
- relative viability (HCC-78; first compound 0.006325 µM): 0.323
- relative viability (HCC-78; first compound 0.06325 µM): 0.412
- relative viability (HCC-78; first compound 0.2 µM): 0.301
- relative viability (LU99A; first compound 0.002 µM): 0.274
- relative viability (LU99A; first compound 0.006325 µM): 0.265
- relative viability (LU99A; first compound 0.02 µM): 0.265
- relative viability (LU99A; first compound 0.06325 µM): 0.154
- relative viability (LU99A; first compound 0.2 µM): 0.162
- relative viability (NCI-H1650; first compound 0.002 µM): 0.717
- relative viability (NCI-H1650; first compound 0.006325 µM): 0.44
- relative viability (NCI-H1650; first compound 0.02 µM): 0.163
- relative viability (NCI-H1650; first compound 0.06325 µM): 0.0992
- relative viability (NCI-H1650; first compound 0.2 µM): 0.148
- relative viability (NCI-H1651; first compound 0.002 µM): 0.818
- relative viability (NCI-H1651; first compound 0.006325 µM): 0.622
- relative viability (NCI-H1651; first compound 0.02 µM): 0.42
- relative viability (NCI-H1651; first compound 0.06325 µM): 0.377
- relative viability (NCI-H1651; first compound 0.2 µM): 0.18
- relative viability (NCI-H1755; first compound 0.002 µM): 0.768
- relative viability (NCI-H1755; first compound 0.006325 µM): 0.707
- relative viability (NCI-H1755; first compound 0.02 µM): 0.626
- relative viability (NCI-H1755; first compound 0.06325 µM): 0.206
- relative viability (NCI-H1755; first compound 0.2 µM): 0.113
- relative viability (NCI-H1793; first compound 0.002 µM): 0.257
- relative viability (NCI-H1793; first compound 0.006325 µM): 0.246
- relative viability (NCI-H1793; first compound 0.02 µM): 0.199
- relative viability (NCI-H1793; first compound 0.06325 µM): 0.125
- relative viability (NCI-H1793; first compound 0.2 µM): 0.112
- relative viability (NCI-H2085; first compound 0.002 µM): 0.793
- relative viability (NCI-H2085; first compound 0.006325 µM): 0.779
- relative viability (NCI-H2085; first compound 0.02 µM): 0.395
- relative viability (NCI-H2085; first compound 0.06325 µM): 0.242
